Data as given in ChEMBL document CHEMBL3596095, “Design, synthesis, and biological activity of phenyl-pyrazole derivatives as BCR-ABL kinase inhibitors” (Bioorg Med Chem, 2015).

Columns and labels:
K562 = assay: cells; assay type: functional, cell-based; conditions: Homo sapiens, K562, 48 h
Description: Antitumor activity against human K562 cells assessed as inhibition of cell growth after 48 hrs by MTT assay

Bcr/Abl fusion protein = Bcr/Abl fusion protein (Homo sapiens, UniProt P00519); assay: Inhibition of BCR-ABL1 (unknown origin) assessed as ATP remaining by Kinase-Glo luminescent kinase assay
Bcr/Abl fusion protein, sequence (P00519 whole entry, the tested form may be a part): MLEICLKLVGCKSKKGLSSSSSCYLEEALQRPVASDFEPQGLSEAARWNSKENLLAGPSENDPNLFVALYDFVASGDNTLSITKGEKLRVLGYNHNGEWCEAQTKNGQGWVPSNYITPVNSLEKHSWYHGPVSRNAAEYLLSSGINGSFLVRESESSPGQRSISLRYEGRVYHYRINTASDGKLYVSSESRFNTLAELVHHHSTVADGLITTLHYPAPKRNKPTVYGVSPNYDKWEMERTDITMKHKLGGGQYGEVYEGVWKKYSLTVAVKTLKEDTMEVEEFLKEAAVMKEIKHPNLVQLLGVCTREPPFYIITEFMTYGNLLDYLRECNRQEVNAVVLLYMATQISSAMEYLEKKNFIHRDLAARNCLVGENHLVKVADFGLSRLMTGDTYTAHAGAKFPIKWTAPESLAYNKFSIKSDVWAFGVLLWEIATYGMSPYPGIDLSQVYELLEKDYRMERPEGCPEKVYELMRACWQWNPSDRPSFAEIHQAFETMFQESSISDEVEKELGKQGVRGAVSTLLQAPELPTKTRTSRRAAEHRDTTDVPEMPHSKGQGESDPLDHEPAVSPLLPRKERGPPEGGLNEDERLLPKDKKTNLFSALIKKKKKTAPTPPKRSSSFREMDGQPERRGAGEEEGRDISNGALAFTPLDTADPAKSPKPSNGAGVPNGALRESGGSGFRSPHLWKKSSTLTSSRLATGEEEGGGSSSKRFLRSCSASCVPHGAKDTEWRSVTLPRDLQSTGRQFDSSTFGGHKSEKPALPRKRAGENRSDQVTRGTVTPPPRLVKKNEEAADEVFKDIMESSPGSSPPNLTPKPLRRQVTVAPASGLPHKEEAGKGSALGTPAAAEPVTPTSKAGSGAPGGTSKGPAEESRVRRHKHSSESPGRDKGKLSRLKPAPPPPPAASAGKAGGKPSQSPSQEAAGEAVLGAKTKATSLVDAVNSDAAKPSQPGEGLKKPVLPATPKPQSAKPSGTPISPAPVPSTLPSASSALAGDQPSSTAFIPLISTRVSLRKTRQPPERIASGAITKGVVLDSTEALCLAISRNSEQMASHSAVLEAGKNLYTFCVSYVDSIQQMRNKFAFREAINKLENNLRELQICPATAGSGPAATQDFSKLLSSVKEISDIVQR
Bcr/Abl fusion protein, sequence (P11274 whole entry, further chain, the tested form may be a part): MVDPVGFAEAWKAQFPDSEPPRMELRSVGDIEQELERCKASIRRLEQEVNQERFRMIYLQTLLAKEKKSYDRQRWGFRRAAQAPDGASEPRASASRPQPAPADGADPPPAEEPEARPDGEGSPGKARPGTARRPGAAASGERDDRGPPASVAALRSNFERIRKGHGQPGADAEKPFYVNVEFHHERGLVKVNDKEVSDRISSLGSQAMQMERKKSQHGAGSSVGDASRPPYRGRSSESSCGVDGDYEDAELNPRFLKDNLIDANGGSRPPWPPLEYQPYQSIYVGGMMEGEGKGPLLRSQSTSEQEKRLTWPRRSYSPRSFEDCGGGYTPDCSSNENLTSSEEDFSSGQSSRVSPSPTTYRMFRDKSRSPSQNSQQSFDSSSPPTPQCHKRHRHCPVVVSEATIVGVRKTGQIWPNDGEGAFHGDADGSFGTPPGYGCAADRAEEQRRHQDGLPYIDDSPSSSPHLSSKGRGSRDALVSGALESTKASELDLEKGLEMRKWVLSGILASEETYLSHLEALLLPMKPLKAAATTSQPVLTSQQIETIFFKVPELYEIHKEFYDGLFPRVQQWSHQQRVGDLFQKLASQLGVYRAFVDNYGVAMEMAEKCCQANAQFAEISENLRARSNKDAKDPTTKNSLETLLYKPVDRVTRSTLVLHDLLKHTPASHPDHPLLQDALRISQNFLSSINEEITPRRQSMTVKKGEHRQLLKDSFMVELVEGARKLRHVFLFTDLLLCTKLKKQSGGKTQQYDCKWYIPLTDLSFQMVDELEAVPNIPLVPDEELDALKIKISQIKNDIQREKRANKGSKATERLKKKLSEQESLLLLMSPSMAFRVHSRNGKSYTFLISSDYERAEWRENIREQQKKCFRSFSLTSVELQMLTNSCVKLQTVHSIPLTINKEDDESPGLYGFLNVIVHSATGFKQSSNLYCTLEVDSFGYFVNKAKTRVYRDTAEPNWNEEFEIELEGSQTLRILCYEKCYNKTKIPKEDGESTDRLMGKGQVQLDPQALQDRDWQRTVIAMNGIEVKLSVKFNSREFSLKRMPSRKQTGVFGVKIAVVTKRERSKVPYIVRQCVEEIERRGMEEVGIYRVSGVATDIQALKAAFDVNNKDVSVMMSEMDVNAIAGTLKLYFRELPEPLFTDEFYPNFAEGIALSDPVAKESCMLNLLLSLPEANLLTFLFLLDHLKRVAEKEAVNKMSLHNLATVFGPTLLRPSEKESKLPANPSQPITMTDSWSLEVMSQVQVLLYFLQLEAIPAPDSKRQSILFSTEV

SMILES	IC50 (K562) [µM]	IC50 (Bcr/Abl fusion protein) [µM]
Cc1ccc(NC(=O)c2ccc(CN3CCCC3)cc2)cc1-n1cc(-c2cccnc2)cn1	2.74	0.117
Cc1ccc(NC(=O)c2ccc(Cn3ccnc3)cc2)cc1-n1cc(-c2cccnc2)cn1	136	0.326
CCc1ccc(C(=O)Nc2ccc(C)c(-n3cc(-c4cccnc4)cn3)c2)cc1	6.52	0.041
Cc1ccc(NC(=O)c2ccc(CN3CCOCC3)cc2)cc1-n1cc(-c2cccnc2)cn1	21.5	0.178
Cc1ccc(NC(=O)c2ccc(F)cc2)cc1-n1cc(-c2cccnc2)cn1	12.5	0.214
Cc1ccc(NC(=O)c2ccc(CN3CCN(CCO)CC3)cc2)cc1-n1cc(-c2cccnc2)cn1	98.3	0.175
COc1ccc(C(=O)Nc2ccc(C)c(-n3cc(-c4cccnc4)cn3)c2)cc1	18.3	0.0462
Cc1ccc(NC(=O)c2ccc(CN3CCCN(C)CC3)cc2)cc1-n1cc(-c2cccnc2)cn1	8.65	0.0266
CCN(CC)Cc1ccc(C(=O)Nc2ccc(C)c(-n3cc(-c4cccnc4)cn3)c2)cc1	3.26	0.129

These reach a lower IC50 (K562). Values come first.

IC50 (K562) [µM]	IC50 (Bcr/Abl fusion protein) [µM]	SMILES
2.33	0.0169	CCN1CCN(Cc2ccc(C(=O)Nc3ccc(C)c(-n4cc(-c5cccnc5)cn4)c3)cc2)CC1
1.67	0.0506	Cc1ccc(NC(=O)c2ccc(CN3CCN(C)CC3)cc2)cc1-n1cc(-c2cccnc2)cn1
1.32	0.0159	Cc1ccc(NC(=O)c2cccc(Cl)c2)cc1-n1cc(-c2cccnc2)cn1
0.76	0.0433	Cc1ccc(NC(=O)c2ccc(C(F)(F)F)cc2)cc1-n1cc(-c2cccnc2)cn1
0.27	0.0142	Cc1ccc(NC(=O)c2cccc(C(F)(F)F)c2)cc1-n1cc(-c2cccnc2)cn1
